Measured values: patent US12281081B2, “Herbicidal compounds” (SYNGENTA CROP PROTECTION AG, priority 2019, dated 2025)

How the values were obtained:
Avena fatua (AVEFA) [1] = assay: Pre-emergence herbicidal glasshouse test; type: in vivo; details: 250 g/Ha, evaluated after 13 days
Description: (§1) Compounds are applied at 250 g/h. […] NT=not tested.

Setaria faberi (SETFA) [2] = assay: Pre-emergence herbicidal glasshouse test; type: in vivo; details: 250 g/Ha, evaluated after 13 days
Description: as §1

[3] = tested on: Echinochloa crus-galli (ECHCG); assay: Pre-emergence herbicidal glasshouse test; type: in vivo; details: 250 g/Ha, evaluated after 13 days
Description: as §1

[4] = tested on: Alopecurus myosuroides (ALOMY); assay: Pre-emergence herbicidal glasshouse test; type: in vivo; details: 250 g/Ha, evaluated after 13 days
Description: as §1

Lolium perenne (LOLPE) [5] = assay: Pre-emergence herbicidal glasshouse test; type: in vivo; details: 250 g/Ha, evaluated after 13 days
Description: as §1

Avena fatua (AVEFA) [6] = assay: Post-emergence herbicidal glasshouse test; type: in vivo; details: 250 g/Ha, evaluated after 13 days
Description: as §1

Setaria faberi (SETFA) [7] = assay: Post-emergence herbicidal glasshouse test; type: in vivo; details: 250 g/Ha, evaluated after 13 days
Description: as §1

[8] = tested on: Echinochloa crus-galli (ECHCG); assay: Post-emergence herbicidal glasshouse test; type: in vivo; details: 250 g/Ha, evaluated after 13 days
Description: as §1

[9] = tested on: Alopecurus myosuroides (ALOMY); assay: Post-emergence herbicidal glasshouse test; type: in vivo; details: 250 g/Ha, evaluated after 13 days
Description: as §1

Lolium perenne (LOLPE) [10] = assay: Post-emergence herbicidal glasshouse test; type: in vivo; details: 250 g/Ha, evaluated after 13 days
Description: as §1

wheat crop plants = assay: Crop phytotoxicity comparison, post-emergence
barley crop plants = assay: Crop phytotoxicity comparison, post-emergence
[11] = rate 60 g/ha + safener cloquintocet-mexyl (CQC) at 50 g/ha

| Compound | percentage damage caused to the plant, AVEFA (Avena fatua (AVEFA) [1]) | percentage damage caused to the plant, SETFA (Setaria faberi (SETFA) [2]) | percentage damage caused to the plant, ECHCG [3] | percentage damage caused to the plant, ALOMY [4] | percentage damage caused to the plant, LOLPE (Lolium perenne (LOLPE) [5]) | percentage damage caused to the plant, AVEFA (Avena fatua (AVEFA) [6]) | percentage damage caused to the plant, SETFA (Setaria faberi (SETFA) [7]) | percentage damage caused to the plant, ECHCG [8] | percentage damage caused to the plant, ALOMY [9] | percentage damage caused to the plant, LOLPE (Lolium perenne (LOLPE) [10]) | % phytotoxicity observed, Wheat (wheat crop plants; rate 30 g/ha) [%] | % phytotoxicity observed, Wheat (wheat crop plants; rate 60 g/ha) [%] | % phytotoxicity observed, Wheat (wheat crop plants; [11]) [%] | damage to the wheat crop compared to prior art compound C1 (wheat crop plants; summary of Table B3) | % phytotoxicity observed, Barley (barley crop plants; rate 30 g/ha) [%] | % phytotoxicity observed, Barley (barley crop plants; rate 60 g/ha) [%] | damage to the barley crop compared to prior art compound C1 (barley crop plants; summary of Table B3) |
| --- | --- | --- | --- | --- | --- | --- | --- | --- | --- | --- | --- | --- | --- | --- | --- | --- | --- |
| CC#Cc1cc(C)c(C2C(=O)CC3(CCN(S(=O)(=O)NCC)CC3)CC2=O)c(C)c1 [Compound A6] | 4 (4=60-79%) | 5 (5=80-100%) | 5 (5=80-100%) | 3 (3=40-59%) | 4 (4=60-79%) | 5 (5=80-100%) | 5 (5=80-100%) | 5 (5=80-100%) | 5 (5=80-100%) | 5 (5=80-100%) |  |  |  |  |  |  |  |
| CC#Cc1cc(C)c(C2C(=O)CC3(CCN(S(=O)(=O)N(C)C)CC3)CC2=O)c(C)c1 [Compound A4] | 5 (5=80-100%) | 5 (5=80-100%) | 5 (5=80-100%) | 5 (5=80-100%) | 5 (5=80-100%) | 5 (5=80-100%) | 5 (5=80-100%) | 5 (5=80-100%) | 5 (5=80-100%) | 5 (5=80-100%) |  |  |  |  |  |  |  |
| CC#Cc1cc(C)c(C2C(=O)CC3(CCN(S(=O)(=O)N4CCS(=O)(=O)CC4)CC3)CC2=O)c(C)c1 [Compound A12] | 5 (5=80-100%) | 5 (5=80-100%) | 5 (5=80-100%) | 5 (5=80-100%) | 4 (4=60-79%) | 5 (5=80-100%) | 5 (5=80-100%) | 5 (5=80-100%) | 5 (5=80-100%) | 4 (4=60-79%) |  |  |  |  |  |  |  |
| CC#Cc1cc(C)c(C2C(=O)CC3(CCN(S(C)(=N)=O)CC3)CC2=O)c(C)c1 (stereo not shown) [Compound A1, 9-(2,6-dimethyl-4-prop-1-ynyl-phenyl)-3-(methylsulfonimidoyl)-3-azaspiro[5.5]undecane-8,10-dione] | 5 (5=80-100%) | 5 (5=80-100%) | 5 (5=80-100%) | 5 (5=80-100%) | 5 (5=80-100%) | 5 (5=80-100%) | 5 (5=80-100%) | 5 (5=80-100%) | 5 (5=80-100%) | 5 (5=80-100%) | 0 | 0 | 0 | significantly less damaging | 0 | 0 | significantly less damaging |
| CC#Cc1cc(C)c(C2C(=O)CC3(CCN(S(=N)(=O)c4ccccn4)CC3)CC2=O)c(C)c1 (stereo not shown) [Compound A5] | 5 (5=80-100%) | 5 (5=80-100%) | 5 (5=80-100%) |  | 5 (5=80-100%) | 5 (5=80-100%) | 5 (5=80-100%) | 5 (5=80-100%) |  | 5 (5=80-100%) |  |  |  |  |  |  |  |
| CC#Cc1cc(C)c(C2C(=O)CC3(CCOCC3)CC2=O)c(C)c1 [Compound C1, reference compound] |  |  |  |  |  |  |  |  |  |  | 40 | 70 | 60 |  | 80 | 90 |  |
| CC#Cc1cc(C)c(C2=C(OC(=O)OC)CC3(CCN(S(=O)(=O)N(C)C(=O)OC)CC3)CC2=O)c(C)c1 [Compound P4] | 5 (5=80-100%) | 5 (5=80-100%) | 5 (5=80-100%) | 5 (5=80-100%) | 5 (5=80-100%) | 5 (5=80-100%) | 5 (5=80-100%) | 5 (5=80-100%) | 5 (5=80-100%) | 5 (5=80-100%) |  |  |  |  |  |  |  |
| CC#Cc1cc(C)c(C2C(=O)CC3(CCN(S(=O)(=O)N(C)CC#N)CC3)CC2=O)c(C)c1 [Compound A11] | 2 (2=20-39%) | 5 (5=80-100%) | 5 (5=80-100%) | 1 (1=0-19%) | 4 (4=60-79%) | 5 (5=80-100%) | 5 (5=80-100%) | 5 (5=80-100%) | 5 (5=80-100%) | 5 (5=80-100%) |  |  |  |  |  |  |  |
| CC#Cc1cc(C)c(C2=C(OC(=O)OC)CC3(CCN(S(=O)(=O)NC)CC3)CC2=O)c(C)c1 [Compound P2, [9-(2,6-dimethyl-4-prop-1-ynyl-phenyl)-3-(methylsulfamoyl)-10-oxo-3-azaspiro[5.5]undec-8-en-8-yl] methyl carbonate] | 5 (5=80-100%) | 5 (5=80-100%) | 5 (5=80-100%) | 5 (5=80-100%) | 5 (5=80-100%) | 5 (5=80-100%) | 5 (5=80-100%) | 5 (5=80-100%) | 5 (5=80-100%) | 5 (5=80-100%) |  |  |  |  |  |  |  |
| CC#Cc1cc(C)c(C2=C(OC(=O)OC)CC3(CCN(S(=N)(=O)CC)CC3)CC2=O)c(C)c1 (stereo not shown) [Compound P1] | 5 (5=80-100%) | 5 (5=80-100%) | 5 (5=80-100%) | 5 (5=80-100%) | 5 (5=80-100%) | 5 (5=80-100%) | 5 (5=80-100%) | 5 (5=80-100%) | 5 (5=80-100%) | 5 (5=80-100%) |  |  |  |  |  |  |  |
| CC#Cc1cc(C)c(C2C(=O)CC3(CCN(S(=N)(=O)CC)CC3)CC2=O)c(C)c1 (stereo not shown) [Compound A2] | 5 (5=80-100%) | 5 (5=80-100%) | 5 (5=80-100%) | 5 (5=80-100%) | 5 (5=80-100%) | 5 (5=80-100%) | 5 (5=80-100%) | 5 (5=80-100%) | 5 (5=80-100%) | 5 (5=80-100%) |  |  |  |  |  |  |  |
| CC#Cc1cc(C)c(C2C(=O)CC3(CCN(S(=O)(=O)N4CCOCC4)CC3)CC2=O)c(C)c1 [Compound A7] | 1 (1=0-19%) | 5 (5=80-100%) | 5 (5=80-100%) | 2 (2=20-39%) | 5 (5=80-100%) | 5 (5=80-100%) | 5 (5=80-100%) | 5 (5=80-100%) | 5 (5=80-100%) | 5 (5=80-100%) |  |  |  |  |  |  |  |
| CC#Cc1cc(C)c(C2=C(OC(=O)OC)CC3(CCN(S(C)(=N)=O)CC3)CC2=O)c(C)c1 (stereo not shown) [Compound P3, [9-(2,6-dimethyl-4-prop-1-ynyl-phenyl)-3-(methylsulfonimidoyl)-10-oxo-3-azaspiro[5.5]undec-8-en-8-yl] methyl carbonate] | 5 (5=80-100%) | 5 (5=80-100%) | 5 (5=80-100%) | 5 (5=80-100%) | 5 (5=80-100%) | 5 (5=80-100%) | 5 (5=80-100%) |  | 5 (5=80-100%) | 5 (5=80-100%) |  |  |  |  |  |  |  |
| CC#Cc1cc(C)c(C2C(=O)CC3(CCN(S(=O)(=O)NC(C)=O)CC3)CC2=O)c(C)c1 [Compound A13] | 5 (5=80-100%) | 5 (5=80-100%) | 5 (5=80-100%) | 5 (5=80-100%) | 5 (5=80-100%) | 5 (5=80-100%) | 5 (5=80-100%) | 5 (5=80-100%) | 5 (5=80-100%) | 5 (5=80-100%) |  |  |  |  |  |  |  |
